Source: patent US20220233661A1, “METHOD OF DETERMINING ELIGIBILITY OF CANCER PATIENT FOR PEPTIDE VACCINE THERAPY” (priority 2019, published 2022)

What was measured:
[1] = test system: anti-peptide IgG in plasma; experiment: Test Example 4: peptide-specific IgG titer pre and post vaccination, bead-based multiplexed Luminex assay; format: in vivo, human; details: for Pre-vaccination IgG Negative (number of patients) / Pre-vaccination IgG Positive (number of patients): cut off 10 FIU; for Post vaccination IgG: number of (positive) patients among vaccinated: positive IgG response; for Pre-vaccination IgG Negative patients: number of 2,588 patients below 10 FIU; for Pre-vaccination IgG Positive patients: number of 2,588 patients with ≥10 FIU; for Post vaccination IgG: (positive) patients: number of vaccinated patients with positive IgG response; for Correlation between immune responses and OS: Negative (mOS): patients with negative post-vaccination IgG response to the peptide; for Correlation between immune responses and OS: Positive (mOS): patients with positive post-vaccination IgG response to the peptide
How it was run: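 Plasma taken before vaccination and at the end of the first and second cycles; incubated with peptide-coupled beads 2 hours at 25° C., then biotinylated anti-human IgG (gamma chain-specific) and streptavidin-PE. Bead FIU read by Luminex; positivity cutoff 10 FIU in 100-fold diluted samples.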

cancer patients = experiment: Test Example 4: correlation between vaccination with individual peptides (or peptide sets) and OS, Cox proportional hazards regression; format: in vivo, human; details: for HR: Cox proportional hazards regression, OS; for Correlation between immune responses and OS: Negative (mOS) / Correlation between immune responses and OS: Positive (mOS): Table 20, <64% neutrophil and ≥26% lymphocyte; for Correlation between immune responses and OS: Negative (mOS): vaccinated patients with negative IgG response; for Correlation between immune responses and OS: Positive (mOS): vaccinated patients with positive IgG response
How it was run: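 Univariate and multivariate Cox proportional hazards regression of each of 31 vaccine peptides against OS (enrollment to death or last contact), giving HR with 95% CI; also run separately in 2,085 advanced (stage IV+recurrence) and 503 stage I-III patients. Two-sided p<0.05 considered significant.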

[2] = Table 20, patients showing both <64% neutrophil and ≥26% lymphocyte
[3] = patients showing detectable levels
[4] = patients showing positive responses
[5] = Table 18, all 2,588 cases, vaccinated vs non-vaccinated
[6] = Table 18, all 2,588 cases, median OS of patients under PPV containing the peptide
[7] = Table 18, all 2,588 cases, median OS of patients under PPV not containing the peptide
[8] = Table 19, 2,085 advanced cancer patients (stage IV+recurrence)
[9] = Table 19, 2,085 advanced cancer patients (stage IV+recurrence), PPV containing the peptide
[10] = Table 19, 2,085 advanced cancer patients (stage IV+recurrence), PPV not containing the peptide
[11] = Table 21, patients showing both <64% neutrophil and ≥26% lymphocyte
[12] = Table 21, patients showing both <64% neutrophil and ≥26% lymphocyte, PPV containing the peptide
[13] = Table 21, patients showing both <64% neutrophil and ≥26% lymphocyte, PPV not containing the peptide

VIQNLERGYR (listed as Homo sapiens) [Lck-449]
Post vaccination IgG Median (FIU) [1, 2]: 18,734 FIU
Pre-vaccination IgG Median (FIU) [1, 2]: 23 FIU
Pre-vaccination IgG Negative (number of patients) [1, 2]: 475
Pre-vaccination IgG Positive (number of patients) [1, 2]: 591
Post vaccination IgG: number of (positive) patients among vaccinated [1, 2]: 57(38)
Pre-vaccination IgG Negative patients [1]: 1,182
Pre-vaccination IgG Positive patients [1]: 1,406
Post vaccination IgG: (positive) patients [1]: 127(67)
Pre-vaccination IgG Median (FIU) [1, 3]: 23 FIU
Post vaccination IgG Median (FIU) [1, 4]: 18,919 FIU
Correlation between immune responses and OS: Negative (mOS) [1]: 6.2 months
Correlation between immune responses and OS: Positive (mOS) [1]: 19.5 months
HR (cancer patients; [5]): 0.9
Vaccinate cases (mOS) (cancer patients; [6]): 127(13.7) M
Non-vaccinate cases (mOS) (cancer patients; [7]): 1,087(10.8) M
HR (cancer patients; [8]): 0.8
Vaccinate cases (mOS) (cancer patients; [9]): 102(13.3) M
Non-vaccinate cases (mOS) (cancer patients; [10]): 867(9.5) M
Correlation between immune responses and OS: Negative (mOS) (cancer patients): 10 months
Correlation between immune responses and OS: Positive (mOS) (cancer patients): 27.1 months
HR (cancer patients; [11]): 0.8
Vaccinate cases (mOS) (cancer patients; [12]): 57(18.1) M
Non-vaccinate cases (mOS) (cancer patients; [13]): 450(17.5) M

VYDYNCHVDL (listed as Homo sapiens) [SART3-109]
Post vaccination IgG Median (FIU) [1, 2]: 9,770 FIU
Pre-vaccination IgG Median (FIU) [1, 2]: 30 FIU
Pre-vaccination IgG Negative (number of patients) [1, 2]: 572
Pre-vaccination IgG Positive (number of patients) [1, 2]: 494
Post vaccination IgG: number of (positive) patients among vaccinated [1, 2]: 192(116)
Pre-vaccination IgG Negative patients [1]: 1,382
Pre-vaccination IgG Positive patients [1]: 1,206
Post vaccination IgG: (positive) patients [1]: 474(223)
Pre-vaccination IgG Median (FIU) [1, 3]: 31 FIU
Post vaccination IgG Median (FIU) [1, 4]: 7,875 FIU
Correlation between immune responses and OS: Negative (mOS) [1]: 10.3 months
Correlation between immune responses and OS: Positive (mOS) [1]: 19.0 months
HR (cancer patients; [5]): 1.0
Vaccinate cases (mOS) (cancer patients; [6]): 474(12.3) M
Non-vaccinate cases (mOS) (cancer patients; [7]): 1,948(11.5) M
HR (cancer patients; [8]): 1.0
Vaccinate cases (mOS) (cancer patients; [9]): 376(10.6) M
Non-vaccinate cases (mOS) (cancer patients; [10]): 1566(10.2) M
Correlation between immune responses and OS: Negative (mOS) (cancer patients): 17.1 months
Correlation between immune responses and OS: Positive (mOS) (cancer patients): 24.1 months
HR (cancer patients; [11]): 1.0
Vaccinate cases (mOS) (cancer patients; [12]): 192(19.8) M
Non-vaccinate cases (mOS) (cancer patients; [13]): 796(18.0) M

WLEYYNLER (listed as Homo sapiens) [SART3-511]
Post vaccination IgG Median (FIU) [1, 2]: 1,095 FIU
Pre-vaccination IgG Median (FIU) [1, 2]: 38 FIU
Pre-vaccination IgG Negative (number of patients) [1, 2]: 264
Pre-vaccination IgG Positive (number of patients) [1, 2]: 802
Post vaccination IgG: number of (positive) patients among vaccinated [1, 2]: 179(82)
Pre-vaccination IgG Negative patients [1]: 621
Pre-vaccination IgG Positive patients [1]: 1,967
Post vaccination IgG: (positive) patients [1]: 439(145)
Pre-vaccination IgG Median (FIU) [1, 3]: 41 FIU
Post vaccination IgG Median (FIU) [1, 4]: 921 FIU
Correlation between immune responses and OS: Negative (mOS) [1]: 10.8 months
Correlation between immune responses and OS: Positive (mOS) [1]: 22.6 months
HR (cancer patients; [5]): 1.0
Vaccinate cases (mOS) (cancer patients; [6]): 439(11.0) M
Non-vaccinate cases (mOS) (cancer patients; [7]): 775(11.2) M
HR (cancer patients; [8]): 1.0
Vaccinate cases (mOS) (cancer patients; [9]): 346(9.9) M
Non-vaccinate cases (mOS) (cancer patients; [10]): 623(10.0) M
Correlation between immune responses and OS: Negative (mOS) (cancer patients): 17.1 months
Correlation between immune responses and OS: Positive (mOS) (cancer patients): 29.2 months
HR (cancer patients; [11]): 0.9
Vaccinate cases (mOS) (cancer patients; [12]): 179(19.0) M
Non-vaccinate cases (mOS) (cancer patients; [13]): 328(17.5) M
